Test results published in PMC10901353, “Identification of a potent and selective LAPTc inhibitor by RapidFire-Mass Spectrometry, with antichagasic activity” (PLOS Neglected Tropical Diseases, 2024).
Several values for one entry are separate records, joined by “and”; a condition that tells them apart may be missing. Identical values can stand only once. Like-named read-outs stand apart in the source and are kept apart here.

What was measured:
Vero cells = assay: Cytotoxicity against infected Vero host cells in T. cruzi intracellular assay; assay type: cell-based, African green monkey; design: Max Effect (Vero): unit not given here; details: individual replicates
Experimental: (§1) Briefly, these cells were maintained at 37°C and 5% CO2 in MEM supplemented with 10% FCS, sub-culturing every 2–3 days at a ratio of 1:5 after 5 min treatment with Trypsin-EDTA (Gibco).
(§2) This assay was performed as described with the only modification that treatment was 96 h instead of 72 h. Briefly, Vero cells were infected overnight with tissue culture derived T. cruzi trypomastigotes in T225 tissue culture flasks (MOI 5). Any remaining free trypomastigotes were washed away with serum free MEM and the infected Vero cells were harvested by trypsinisation. Compounds (250 nL in DMSO) were dispensed using LabCyte ECHO (Beckman Coulter Life Sciences, USA) into each well of Corning black flat bottomed 384-well plates (Corning, USA). […] The infected Vero cells were then plated into the plates containing the compounds, at 4,000 cells per well in MEM media with 1% FCS. […] The plates were imaged on a Perkin Elmer Operetta high-content imaging system using a 20× objective. Images were analyzed using the Columbus system (Perkin Elmer). The algorithm first identified the Vero nuclei followed by demarcation of the cytoplasm and identification of intracellular amastigotes. This algorithm reported percent infected Vero cell and total number of Vero cells. All potency determinations were carried out in at least three independent replicates and are reported as pEC50 +/- standard deviation. pEC50 = -log(EC50[M]).

[1] = as above; assay type: cell-based, African green monkey; design: Max Effect (Vero): unit not given here; details: African green monkey, Vero cells infected with T. cruzi; infected Vero host cells, 96 h; read-out: pCC50 (Vero) +/- StDev (converted)
Experimental: as §1, §2

[2] = biological target: T1, LAPTc (acidic M17 leucyl-aminopeptidase from T. cruzi) (Trypanosoma cruzi, UniProt V5BWE3); assay: Dose-response studies for LAPTc inhibition by RapidFire-MS; assay type: biochemical; details: for Emax: read-out: Maximum Effect; for Hit Confirmation: whether primary screen hit confirmed in potency experiment
T1 sequence (V5BWE3 entry or part of it): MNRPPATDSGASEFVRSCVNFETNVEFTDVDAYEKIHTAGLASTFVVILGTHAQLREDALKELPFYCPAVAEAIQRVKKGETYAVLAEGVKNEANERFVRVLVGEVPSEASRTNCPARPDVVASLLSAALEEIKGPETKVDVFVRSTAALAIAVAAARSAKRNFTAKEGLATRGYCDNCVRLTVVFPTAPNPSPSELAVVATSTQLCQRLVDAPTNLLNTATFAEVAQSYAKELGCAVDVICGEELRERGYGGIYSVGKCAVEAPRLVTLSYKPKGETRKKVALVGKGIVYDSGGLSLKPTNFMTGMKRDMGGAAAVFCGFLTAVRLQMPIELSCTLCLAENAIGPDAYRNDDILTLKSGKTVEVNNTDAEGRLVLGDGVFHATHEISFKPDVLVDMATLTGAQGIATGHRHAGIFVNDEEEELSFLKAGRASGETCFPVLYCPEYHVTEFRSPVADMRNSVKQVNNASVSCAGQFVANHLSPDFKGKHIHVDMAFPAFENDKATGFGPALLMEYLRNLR
Experimental: (§3) This assay was previously described. The assay was performed in 384-well clear F-bottom polypropylene plates with a final reaction volume of 15 μL. The reaction mixture contained 7.5 μL LAPTc in 50 mM Tris-HCl, pH 7.5, 0.005% NP-40 and 7.5 μL LSTVIVR peptide substrate (Cambridge Research Biochemicals, Billingham, UK) in the same buffer was added to start the reaction. The reaction was performed at room temperature for 40 min and then stopped with 85 μL 1% formic acid containing 0.15 mg/mL STVIVR* internal standard (Cambridge Research Biochemicals, Billingham, UK).
To generate half-maximum inhibitory concentration (IC50) data for LAPTc, 10-point dose-response curves with 100 μM as highest concentration and 1:2 dilution in DMSO (0.195–100 μM range) were prepared in 384 well plates. All other experimental conditions were as described above. All IC50 curve fitting was performed by four-parameter logistic dose-response curve fit using ActivityBase XE (IDBS). At least three replicates were generated for each hit compound.

[3] = Cytotoxicity assay on human HepG2 cells (resazurin); assay type: cell-based; details: human, HepG2 cells, 72 h, two independent experiments; read-out: pCC50 (HepG2) (converted)
HepG2 cells = assay: as above; assay type: cell-based; details: individual replicates
[4] = tested on: intracellular T. cruzi amastigotes; assay: T. cruzi intracellular assay (high-content imaging, infected Vero cells); assay type: cell-based, Trypanosoma cruzi; design: Max Effect (T. cruzi): unit not given here; details: for EC50 / Emax: Trypanosoma cruzi, Vero; for Emax: read-out: Max Effect (T. cruzi)
Experimental: T. cruzi parasite, TcI strain Silvio X10/7 subclone A1 [34] was maintained in culture as previously described. Parasites were maintained as amastigotes by passaging on a weekly basis in Vero cells. Culture maintenance infections were carried out at an MOI (multiplicity of infection) of 1.5.
This assay was performed as described with the only modification that treatment was 96 h instead of 72 h. Briefly, Vero cells were infected overnight with tissue culture derived T. cruzi trypomastigotes in T225 tissue culture flasks (MOI 5). Any remaining free trypomastigotes were washed away with serum free MEM and the infected Vero cells were harvested by trypsinisation. Compounds (250 nL in DMSO) were dispensed using LabCyte ECHO (Beckman Coulter Life Sciences, USA) into each well of Corning black flat bottomed 384-well plates (Corning, USA). […] The infected Vero cells were then plated into the plates containing the compounds, at 4,000 cells per well in MEM media with 1% FCS. After 96 h incubation at 37°C in presence of 5% CO2, the plates were fixed with 4% formaldehyde for 20 min at room temperature and stained with 5 μg/mL Hoechst 33342. The plates were imaged on a Perkin Elmer Operetta high-content imaging system using a 20× objective. Images were analyzed using the Columbus system (Perkin Elmer). The algorithm first identified the Vero nuclei followed by demarcation of the cytoplasm and identification of intracellular amastigotes. This algorithm reported percent infected Vero cell and total number of Vero cells. All potency determinations were carried out in at least three independent replicates and are reported as pEC50 +/- standard deviation. pEC50 = -log(EC50[M]).

[5] = biological target: T1, LAPTc (acidic M17 leucyl-aminopeptidase from T. cruzi); assay: High-throughput single point screening for LAPTc inhibitors by RapidFire-MS; assay type: biochemical; details: primary screen, 30 μM, single replicate; read-out: Percent Inhibition
Experimental: as §3
Single point screening of a library of 3329 compounds was performed in 384-well clear plates (Greiner 781101) at room temperature. Test compounds (45 nL in DMSO) were transferred to assay plates by an ECHO 550 acoustic dispenser (Labcyte). LAPTc was tested at 3 nM with 150 μM (approximately the value of the apparent Michaelis-Menten constant -appKM- [16]) LSTVIVR peptide substrate in a 40 min reaction. Before addition of substrate, LAPTc was preincubated with 45 nL compounds or DMSO for 15 min. Compounds, dissolved in DMSO, were tested at 30 μM. Controls without compound (the same volume of DMSO, 0% inhibitory effect) and without enzyme and compound (100% inhibitory effect) were prepared. The experiment was performed without replicates. The remaining experimental conditions were maintained as previously described. Data were processed and analysed through ActivityBase XE (IDBS). The selection criterion for hits in this single point screen was percent inhibition larger than the mean plus three standard deviations. All primary screening data are available in ChEMBL (see Data Availability statement).

[6] = Initial hit confirmation, single replicate
[7] = Initial hit confirmation, single replicate, read-out: pIC50 (converted)
[8] = Replicate data generation, individual replicates
[9] = Replicate data generation, individual replicates, read-out: pIC50 (converted)
[10] = average of four independent replicates, read-out: pIC50 +/- StDev (LAPTc) (converted)
[11] = 96 h, four independent experiments, read-out: pEC50 (T. cruzi) +/- StDev (converted)
[12] = individual replicates, read-out: pEC50 (T. cruzi) (converted)

SMILES | Max Effect (Vero) (Vero cells) | pEC50 (Vero) (Vero cells) | CC50 at 96 h [1] [µM] | Hill Slope [2, 6] | Emax [2, 6] [%] | IC50 [2, 7] [µM] | Hill Slope [2, 8] | Maximum Effect [2, 8] | Emax [2, 8] [%] | IC50 [2, 9] | IC50 [2, 10] [µM] | Hit Confirmation [2] | CC50 at 72 h [3] [µM] | Max Effect (HepG2) (HepG2 cells) | pEC50 (HepG2) (HepG2 cells) | EC50 [4, 11] [µM] | EC50 [4, 12] [µM] | Max Effect (T. cruzi) ([4]; individual replicates) | inhibition at 30 µM [5] [%] | Emax ([4]; individual replicates) [%] | other results
CC1c2ccsc2CCN1C(=O)c1ccc(-n2cnnn2)cc1 (centres unmarked) [Compound 2] | 26 and 27 and 21 and 22 | < 4.3 | > 50.1 | 1.7 | 77 | 31.6 | 1.1 and 1.2 | 86% | 87 | 15.8 µM | 19.5 | confirmed | > 100 | 4 and 3 | < 4.0 | > 50.1 | > 50.1 | 42 and 15 and 37 and 27 | 62 |  | 
Cc1ccc2nc(-c3ccc(NS(=O)(=O)c4cc(C(=O)O)c(Cl)cc4Cl)cc3)sc2c1 [Compound 5] | 71 and 82 and 77 | 4.4 and 4.6 and 4.5 | 33.1 | 1.2 | 96 | 12.6 | 4.3 and 4.2 and 3.9 | 98% | 99 | 7.94 µM | 8.91 | confirmed | > 100 | 4.7 and 1.78 | < 4.0 | > 50.1 | > 50.1 | 45 | 58 | 44 | 
O=C(CN1NS(=O)(=O)c2ccccc2C1=O)NCCc1ccccc1 [Compound 6] | 8.54 and 13 and 11 and 18 | < 4.3 | > 50.1 | 0.543 | 68 | 20 | 0.9 and 0.54 and 0.7 | 72% and 73% | 76 | 7.94 µM and 12.6 µM and 5.01 µM | 9.77 | confirmed | > 100 | 3.48 and 3.47 | < 4.0 | > 50.1 | > 50.1 | 20 and 14 and 16 | 56 | 11 | 
Nc1[nH]cnc1-c1nc(-c2ccccc2)cs1 [Compound 7] | 78 and 73 | 5.1 and 4.8 and 5.2 | 10.2 | 1.2 | 90 | 2 | 1.7 and 1.5 | 50% and 61% | 53 |  | 3.89 | confirmed | > 100 | 3 and 4 | < 4.0 | 38.9 | 31.6 | 59 and 37 and 30 | 56 |  | pEC50 (T. cruzi) ([4]; individual replicates): < 4.3 and 4.3
Cn1ccnc1C(NS(=O)(=O)c1ccc(C#N)cc1)c1cccc(F)c1 (centres unmarked) [Compound 8] | 18 and 29 and 34 and 32 | < 4.3 | > 50.1 | 1.0 | 89 | 12.6 | 1.5 and 1.6 and 1.3 | 82% | 79 | 12.6 µM |  | confirmed | > 100 | 6.44 and 10 | < 4.0 | > 50.1 | > 50.1 | 31 and 26 and 25 | 49 | 29 | 
O=C(NCC(=O)N1CCc2ccccc2C1)C1CCCCC1 [Compound 9] | 7 and 4 and 15 and 11 | < 4.3 | > 50.1 | 1.7 | 54 | 15.8 | 0.749 and 0.7 and 0.655 | 67% and 63% | 64 | 39.8 µM and 31.6 µM | 28.8 | confirmed | > 100 | 3.76 and 2.85 | < 4.0 | > 50.1 | > 50.1 | 27 and 21 and 30 | 49 | 31 | 
COc1ccc(CC(=O)Nc2nc(-c3ccccn3)cs2)c(OC)c1 [Compound 12] | 46 and 49 and 51 |  | 1 | 2.1 | 84 | 20 | 1.0 and 0.9 and 1.3 | 67% and 73% | 68 | 31.6 µM and 20 µM | 25.1 | confirmed | > 100 | 11 and 10 | < 4.0 | 7.08 | 7.94 | 100 and 94 | 42 | 98 | pEC50 (T. cruzi) ([4]; individual replicates): 5.2
